From publication PMC9940430, “Angiotensin converting enzyme (ACE) inhibitors activity from purified compounds Fructus Phaleria macrocarpa (Scheff) Boerl” (BMC Complementary Medicine and Therapies, 2023)
Converted amounts (≈) assume the structure as drawn.

What was measured:
leukemia l1210 cell line = tested on: leukemia l1210 cell line; design: method as in doi:10.22146/ijc.21576; conditions: isolated from the bark of Mahkota Dewa; cited from earlier work
[1] = molecular target: T1, angiotensin-converting enzyme (ACE) (Homo sapiens, UniProt P12821); assay: In-vitro ACE inhibitor activity assay (HHL substrate, hippuric acid read at 228 nm); type: biochemical; conditions: for inhibition at 1.25 µg/mL: ACE inhibition at a concentration of 1.25 μg/ml, read-out: inhibitory activity ± SD (%); for IC50: ACE inhibition, purified compounds and captopril, read-out: IC50 ± SD (μg/mL) (converted)
T1 sequence (P12821 30-1306, species assumed): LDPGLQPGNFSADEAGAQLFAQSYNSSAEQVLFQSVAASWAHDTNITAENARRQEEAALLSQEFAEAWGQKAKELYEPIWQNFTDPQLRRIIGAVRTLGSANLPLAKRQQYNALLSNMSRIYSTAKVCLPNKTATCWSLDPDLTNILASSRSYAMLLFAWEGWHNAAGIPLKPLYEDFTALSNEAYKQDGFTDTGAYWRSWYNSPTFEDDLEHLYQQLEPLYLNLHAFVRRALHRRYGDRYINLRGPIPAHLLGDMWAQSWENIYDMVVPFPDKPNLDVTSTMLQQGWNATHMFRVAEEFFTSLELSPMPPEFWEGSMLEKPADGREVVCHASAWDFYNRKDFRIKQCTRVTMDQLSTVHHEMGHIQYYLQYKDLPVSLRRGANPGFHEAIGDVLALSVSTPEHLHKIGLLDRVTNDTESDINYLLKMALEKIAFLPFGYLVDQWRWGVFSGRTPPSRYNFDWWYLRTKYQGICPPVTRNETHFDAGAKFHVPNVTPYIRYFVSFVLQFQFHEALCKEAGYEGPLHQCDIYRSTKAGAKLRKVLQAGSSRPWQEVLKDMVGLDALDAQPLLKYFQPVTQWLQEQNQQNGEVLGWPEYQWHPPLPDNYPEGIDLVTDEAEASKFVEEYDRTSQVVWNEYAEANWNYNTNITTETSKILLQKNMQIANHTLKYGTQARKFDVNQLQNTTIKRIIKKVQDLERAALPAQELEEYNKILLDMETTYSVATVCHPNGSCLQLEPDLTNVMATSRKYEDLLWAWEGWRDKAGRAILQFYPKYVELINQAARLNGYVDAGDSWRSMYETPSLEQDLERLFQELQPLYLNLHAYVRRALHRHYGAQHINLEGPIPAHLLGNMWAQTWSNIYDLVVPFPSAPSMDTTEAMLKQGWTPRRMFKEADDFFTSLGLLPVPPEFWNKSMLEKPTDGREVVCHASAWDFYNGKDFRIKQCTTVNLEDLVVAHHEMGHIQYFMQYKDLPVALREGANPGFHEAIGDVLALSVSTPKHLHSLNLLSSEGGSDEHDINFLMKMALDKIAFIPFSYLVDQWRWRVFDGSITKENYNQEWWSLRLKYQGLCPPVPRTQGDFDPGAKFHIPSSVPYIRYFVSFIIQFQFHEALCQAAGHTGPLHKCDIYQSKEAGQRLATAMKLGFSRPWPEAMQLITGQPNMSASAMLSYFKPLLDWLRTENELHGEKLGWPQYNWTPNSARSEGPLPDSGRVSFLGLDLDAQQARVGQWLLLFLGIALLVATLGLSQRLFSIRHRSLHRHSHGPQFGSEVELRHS
Method: This assay was conducted on extract, fraction and three purified compounds using captopril as a positive control at the concentration of 0,01, 0,05, 0,5, 1,25 dan 6,25 mM. In a test tube, 50 μL of the solution assay was added with 50 μL of 8 mM hippuryl-histidyl-leucine (HHL) substrate solution and pre-incubated at 37 °C for 10 minutes, followed by the addition of 100 μL of the ACE, homogenization by vortex mixer, and incubation for 90 minutes at 37 °C. Further, 250 μL of 1 N HCl was added to the mixture to stop the enzymatic reaction. The hippuric acid was produced, while the enzymatic reaction was extracted by 1.5 mL ethyl acetate and later separated from the mixture by centrifugation. The mixture was then concentrated by heating at 100 °C and dispersed in 3 mL of demineralized aqueous to have its absorbance measured by spectrophotometer at 228 nm. The hippuric acid concentration was utilized to calculate the percentage of inhibition (%), and the IC50 value was then calculated using the percentage inhibition obtained. […] An inhibition kinetics test was employed to determine the inhibition mechanism of these compounds. It was performed type of Inhibition was determined by the Lineweaver-Burk method to acquire the Michaelis-Menten kinetic constant. The Michaelis-Menten kinetic constant (Km) is assessed based on the regression equation y = a + bx, in which x is the substrate concentration [S], and y is the absorbance of the sample [18].
Additionally, most chemicals originating from plants positively affect other aspects of normal metabolism. […] The activity of ACE inhibition from medicines or plant extracts can be detected using various ACE inhibitory activity assay methods. Using a substrate of hippuryl-histidyl-leucine (HHL), we used the Cushman and Cheung approach to the data from this study. The ACE will hydrolyze HHL into hippuric acid (HA). A UV-visible spectrophotometer was used to measure the HA at a wavelength of 228 nm to describe the ACE activity. […] Most ACE inhibitory plant metabolites are peptides, protein hydrolysates, phenolics, flavonoids, terpenoids, and alkaloids.

[2] = molecular target: T1, angiotensin-converting enzyme (ACE); assay: Enzyme inhibition kinetics of ACE (Lineweaver-Burk plot); type: biochemical; conditions: for type of inhibition kinetics: Lineweaver-Burk, HHL substrate 4, 6, 8, 10 and 12 μg/ml
Method: This assay was conducted on extract, fraction and three purified compounds using captopril as a positive control at the concentration of 0,01, 0,05, 0,5, 1,25 dan 6,25 mM. In a test tube, 50 μL of the solution assay was added with 50 μL of 8 mM hippuryl-histidyl-leucine (HHL) substrate solution and pre-incubated at 37 °C for 10 minutes, followed by the addition of 100 μL of the ACE, homogenization by vortex mixer, and incubation for 90 minutes at 37 °C. Further, 250 μL of 1 N HCl was added to the mixture to stop the enzymatic reaction. The hippuric acid was produced, while the enzymatic reaction was extracted by 1.5 mL ethyl acetate and later separated from the mixture by centrifugation. The mixture was then concentrated by heating at 100 °C and dispersed in 3 mL of demineralized aqueous to have its absorbance measured by spectrophotometer at 228 nm. The hippuric acid concentration was utilized to calculate the percentage of inhibition (%), and the IC50 value was then calculated using the percentage inhibition obtained. The IC50 value was determined as the peptide concentration in mg/mL was demanded to reduce 50% of ACE activity by regression analysis of the ACE inhibition versus ACE concentration percentage. The examination of the kinetics of enzyme inhibition was carried out at several concentrations of HHL substrates, which are 4, 6, 8, 10, and 12 μg/ml. The samples administered were compound with the lowest IC50 value. An inhibition kinetics test was employed to determine the inhibition mechanism of these compounds. It was performed type of Inhibition was determined by the Lineweaver-Burk method to acquire the Michaelis-Menten kinetic constant. The Michaelis-Menten kinetic constant (Km) is assessed based on the regression equation y = a + bx, in which x is the substrate concentration [S], and y is the absorbance of the sample [18].
Kinetic analysis of ACE inhibition was conducted by administering the Lineweaver-Burk plot (Fig. 4). […] The Lineweaver-Burk graph is generated from relationship of 1/[S] to 1/V.
The active compound with the smallest IC50 value was examined for enzyme inhibition kinetics. […] However, the Km values are different based on the calculation results of the Michaelis-Menten constant. […] Competitive inhibitors compete with the substrate for the enzyme’s active site so that the enzyme cannot produce an enzyme-substrate complex. However, when the concentration of the competitive inhibitor is greater than that of the substrate, it binds to the active binding site to form an enzyme inhibitor complex (EI), which ultimately prevents the formation of any product. In a typical enzymatic reaction, Vmax is the reaction’s maximal rate. Km, also known as the Michaelis-Menten constant, is the substrate concentration halfway between Vmax and Km. […]

Row | inhibition at 1.25 µg/mL [1] | IC50 [1] | Vmax, isolate versus without inhibitor ([2]; Lineweaver-Burk plot, Fig. 4) | type of inhibition kinetics ([2]; listed as compound 3) | type of inhibition kinetics ([2]; listed as mangiferin) | Km, isolate versus without inhibitor ([2]; Michaelis-Menten constant, Fig. 4) | Structure (SMILES) | IC50 (leukemia l1210 cell line)
1 |  |  |  |  |  |  | COc1cc(O)c(C(=O)c2ccc(O)cc2)c(OC2OC(CO)C(O)C(O)C2O)c1 [6,4′-dihydroxy-6-methoxybenzophenone-2-O-β-D-glucopyranoside] | 5.1 µg/mL (≈ 12.1 µM)
2 | 77.48 ± 0.5% | 130 nM |  |  |  |  | COc1cc(O)c(C(=O)c2ccc(O)cc2)c(OC2OC(CO)C(O)C(O)C2O)c1 [Compound 1, 6,4′-dihydroxy-4-methoxybenzophenone-2-O-β-D-glucopyranoside] | 
3 | 85.17 ± 0.23% | 166 nM |  |  |  |  | COc1cc(O)cc(OC2OC(CO)C(O)C(O)C2O)c1C(=O)c1ccc(O)cc1 [Compound 2, 4,4′-dihydroxy-6-methoxybenzophenone-2-O-β-D-glucopyranoside] | 
4 | 86.99 ± 0.02% | 59.2 nM | almost the same | competitively inhibiting | competitive inhibition | different | O=c1c2cc(O)c(O)cc2oc2cc(O)c([C@@H]3O[C@H](CO)[C@@H](O)[C@H](O)[C@H]3O)c(O)c12 [Compound 3, mangiferin] | 
